According to patent US20220039907A1, “Inhibiting Post-Biopsy Inflammation and Metastasis” (The Board of Regents of the University of Oklahoma, priority 2020, published 2022):

Tests used:
[1] = test system: VCAM1 expression in End.3; experiment: PGE2-induced VCAM1 expression in End.3 with selective EP antagonists; type: cell-based, murine; conditions: End.3 cells, PGE2 stimulated
Description: (§1) Inflamed vessels serve as a gateway for MSCs to enter tissue parenchyma. VCAM1 engagement to integrin α4β1 (very late antigen 4; VLA4) mediates shear resistant adhesion of MSCs to the vessel wall that leads to their trans-endothelial migration. […] Similarly, VCAM1 vascular expression was elevated in PGE2 treated mice compared to untreated ones (FIG. 10(B)). Accordingly, shear resistant adhesion of human MSCs was 2-fold higher to PGE2 treated HMVECs than to untreated ones; however, VCAM1 neutralizing antibody abrogated PGE2-induced shear resistant adhesion of MSCs (FIG. 10(C)). […] The white circle in the left panel of FIG. 10(D) indicates infiltrating GFP+ MSCs, and the inset in the upper left corner is a close-up image of the corresponding location. Since VLA4 is the ligand for VCAM1, and conformational change of VLA4 is prerequisite for binding to VCAM1, ligand binding assay using FITC-LDV peptide (which selectively binds to an active form of VLA4) was performed.
PGE2 exerts its action through the binding to 4 types of prostaglandin E receptor (EP1, 2, 3, and 4), which ubiquitously express in various cell types. Human endothelial cells express all 4 types of EP receptors. […] Therefore, without wishing to be bound by theory, an explanation of biopsy-induced metastasis is that systemic availability of PGE2 leads to an elevation of VCAM1 expression in the pulmonary vessels through the EP4 receptor, resulting in increased MSCs tissue infiltration that initiates a provisional PMN in the perivascular space of the lungs (see overview model in FIG. 8).

[2] = test system: bone marrow-derived primary Mϕ; experiment: PGE2-mediated arginase expression in bone marrow-derived primary Mϕ with EP inhibitors; type: cell-based; conditions: Mϕ incubated with PGE2 and selective EP inhibitor
Description: (§2) To further identify the biological consequences of abundant PGE2, the bone marrow-derived primary Mϕ was incubated with 10 μM PGE2. […] PGE2 exerts its action through 4 integral membranous E prostanoid receptors (EP1, EP2, EP3, and EP4). The Mϕ was incubated with PGE2 and selective pharmacologic inhibitors against respective prostaglandin E2 receptor (EP2).

Py230mCherry tumor = experiment: Biopsy-induced lung metastasis in Py230mCherry tumor bearing mice, oral COX2/EP2 inhibitors; type: in vivo; conditions: daily following biopsy, n=15 per group
py230 BC cells = experiment: Experimental metastasis model: intravenous PGE2 priming followed by py230 BC cell injection; type: in vivo; conditions: intravenous PGE2 at level equal to post-biopsy blood, versus untreated mice
Description: Wounding triggers a repair cascade by forming a fibrin matrix containing a series of chemo-attractants (e.g., TGF-β, bFGF, PDGF, TNFα, and EGF) that recruit MSCs from bone marrow to the injured site. MSCs produce innumerable growth factors, cyto-chemokines, and metabolites that promote angiogenesis, immunomodulation, and ECM remodeling in order to repair the damaged tissue. […] MSC2 is characterized by a high level of PGE2 release, a potent vasodilater. […] Given the high interstitial pressure coupled with insufficient lymphatic drainage due to superficial lymphatic vessels in solid tumors, soluble factors seep into the circulation from the tumor. Accordingly, PGE2 levels in the blood were 3 times higher in the biopsied mice compared to that in mice bearing unbiopsied tumors or mice without tumor burden (FIG. 6(C)). PGE2 is enzymatically converted from arachidonic acid by the rate-limiting enzyme Cyclooxygenase (COX). COX2 expression is induced by inflammatory stimuli, whereas COX1 is constitutive. […] However, the biologic mechanism by which circulating PGE2 promotes metastasis has heretofore remained unknown.
PGE2-induced hyper-permeation sites indicated by leakage of 40 kDa FITC-dextran (green) coincided with accumulation of SSEA4^+ MSCs (red), a key component of the PMN^51 (FIG. 9(C)).

pulmonary vessels = experiment: Pulmonary vessel permeability (Evans Blue leakage) after intravenous PGE2; type: in vivo, mice; conditions: intravenous injection, versus saline
[3] = test system: human microvessel endothelial cells (HMVECs); experiment: PGE2 induction of VCAM1 mRNA in HMVECs; type: cell-based; conditions: PGE2 level equivalent to post-biopsy blood
Description: as §1

[4] = test system: murine endothelial cell line (End.3); experiment: PGE2 induction of VCAM1 mRNA in End.3; type: cell-based; conditions: End.3, PGE2 level equivalent to post-biopsy blood
Description: as §1

[5] = test system: VCAM1 vascular expression; experiment: VCAM1 vascular expression in PGE2 treated mice; type: in vivo; conditions: PGE2 treated versus untreated mice
Description: as §1

HMVECs = experiment: Shear resistant adhesion of human MSCs to HMVECs; type: cell-based; conditions: PGE2 treated HMVECs versus untreated
Description: as §1

[6] = test system: bone marrow-derived primary Mϕ; experiment: Quantitative PCR of M2/M1 marker mRNAs in bone marrow-derived primary Mϕ incubated with PGE2; type: cell-based; conditions: 10 μM PGE2
Description: as §2

lung = experiment: Adoptive transfer of GFP+ MSCs into PGE2 pre-treated mice; type: in vivo
Description: as §1

4T1-Luc tumors = experiment: Organ metastasis-free survival of 4T1-Luc tumor mice with or without biopsy, oral ibuprofen; type: in vivo
Description: To experimentally explore the hypothesis that inhibition of PGE2 biosynthesis by NSAIDs diminishes biopsy-induced metastasis, 4T1-Luc tumors were biopsied or left unbiopsied (n=10 per group) once tumor size reached 100 mm^3. One day later, daily oral ibuprofen (non-selective COX inhibitor) or saline was started (50 mg/kg) for 9 days, until the day before mastectomy. Mice were then monitored for metastasis over the next 3 months. […] In contrast, cellularity and COX2 expression in the biopsy wound were far less in mice that were treated with ibuprofen (FIG. 12(B)).

[7] = test system: PGE2 level in biopsied mouse tumors; experiment: PGE2 level in biopsied mouse tumors after oral ibuprofen; type: in vivo; conditions: oral administration; to a level equal to the unbiopsied tumor
primary mouse MSCs = experiment: Biopsy-WF induced PGE2 release from primary mouse MSCs; type: cell-based; conditions: primary mouse MSCs treated with biopsy-WF

In the case of `Cc1cc(Cl)ccc1S(=O)(=O)NC[C@H]1C2CCC(CC2)[C@@H]1/C=C\CCCC(=O)O` [0N08711], the “PGE2-induced VCAM1 expression” value [1] is reported as “no effect” and the PGE2-mediated arginase expression [2] is reported as “no inhibitory effect”.

`CCCCc1nn(-c2ccccc2C(F)(F)F)c(=O)n1Cc1ccc(-c2ccccc2S(=O)(=O)NC(=O)c2sccc2C)cc1` [L-161982] was tested, and the “PGE2-induced VCAM1 expression” value [1] was “blocked” and the PGE2-mediated arginase expression [2] was “no inhibitory effect”.

With `COc1ccc(Br)cc1S(=O)(=O)NC(=O)/C=C/c1ccccc1Cc1ccc2ccccc2c1` [L-798106] the PGE2-mediated arginase expression [2] was “no inhibitory effect”.

In the case of `COc1ccc2cc(OCC3(C(=O)O)CN(C(=O)c4ccc(F)cc4)C3)ccc2c1` [PF-04418948], the “PGE2-induced VCAM1 expression” value [1] is reported as “no effect”, the PGE2-mediated arginase expression [2] is reported as “abrogated” and the biopsy-induced lung metastasis (Py230mCherry tumor) is reported as “significantly reduced”.

In the case of `CCCCC[C@H](O)/C=C/[C@H]1[C@H](O)CC(=O)[C@@H]1C/C=C\CCCC(=O)O` [PGE2, prostaglandin E2], the “pulmonary metastasis of py230 BC cells” value (py230 BC cells) is reported as “enhanced pulmonary metastasis”, the “vessel permeability (Evans Blue leakage into the lungs)” value (pulmonary vessels) is reported as “increased vessel permeability” and the “VCAM1 mRNA expression” value [3] is reported as “induce”. The “VCAM1 mRNA expression” value [4] was “induce”, the VCAM1 vascular expression [5] was “elevated” and the “shear resistant adhesion of human MSCs” value (HMVECs) was 2 fold. The “M1 marker mRNAs (iNOS and TNFα)” value [6] was “decrease”, the “M2 marker mRNA expression (arginase, YM1, YM2)” value [6] was “increase” and the “infiltration of GFP+ MSCs” value (lung) was “preferential infiltration to perivascular space”.

In the case of `CC(C)Cc1ccc(C(C)C(=O)O)cc1` (stereo not drawn) [ibuprofen], the onset of metastasis (4T1-Luc tumors; biopsied 4T1-Luc mice, daily oral 50 mg/kg for 9 days) is reported as “delayed onset”, the metastasis incidence (4T1-Luc tumors; biopsied 4T1-Luc mice, daily oral 50 mg/kg for 9 days, monitored 3 months, biopsied without drug 6/10) is reported as 2/10 and the “cellularity and COX2 expression in the biopsy wound” value (4T1-Luc tumors; histopathology of mastectomized tumors, versus untreated biopsied) is reported as “far less”. The “effect on metastasis in mice that did not receive biopsy” value (4T1-Luc tumors; unbiopsied 4T1-Luc mice, daily oral 50 mg/kg) was “no significant effect”, the “PEG2 level in biopsied mouse tumors” value [7] was “significantly reduced” and the “biopsy-WF induced PGE2 release” value (primary mouse MSCs) was “equally abrogated”.

For `COc1ccc2c(c1)c(CC(=O)O)c(C)n2C(=O)c1ccc(Cl)cc1` [indomethacin], the “biopsy-WF induced PGE2 release” value (primary mouse MSCs) was “equally abrogated”.
